The record followed here is patent publication US9200051B2, “Peptide compound” (TAKEDA PHARMACEUTICAL COMPANY LIMITED, priority 2013, dated 2015).

Like-named read-outs stand apart in the source and are kept apart here. Square brackets hold non-standard residues; d marks the D form. Peptide text beside a SMILES is read from it. αMeF = C[C@](N)(Cc1ccccc1)C(=O)O; Cha = N[C@@H](CC1CCCCC1)C(=O)O; Aib = CC(C)(N)C(=O)O

Data set [1] is described as follows: Solubility test in Britton-Robinson buffer, observed visually. Type of data set: physicochemical. Here is the method: The test compound of approximately 2 mg was measured precisely. Solvents (10 μL, 20 μL or 40 μL) with different pH (Britton-Robinson buffer (pH 3, 5, 7, 9)) were added to each test compound at 25° C., and the solubility was observed visually.

The next data set addresses T1, human GLP-1R (Homo sapiens, UniProt P43220).
T1 construct: expressed in transfected cells; host or cells: CHO-K1, plasmids hGLP-1/pIRESneo3 and Cre-luc(Zeo)
Description: Agonist activity against human GLP-1R, CRE-luciferase reporter assay in hGLP-1R/CRE-luc/CHO-K1 cells. The data set is classed as cell-based. Background: In a reporter assay the amount or activity of a reporter protein is the signal.

The target in a further data set is T2, human glucagon R (Homo sapiens, UniProt P47871).
T2 construct: expressed in transfected cells; host or cells: CHO-K1 (CRE-LUC/CHO-K1), plasmid hGlucagonR/pMSRα-neo
Kind of data set: Agonist activity against human glucagon R, CRE-luciferase reporter assay in hGlucagonR/CRE-LUC/CHO-K1 cells. The data set is classed as cell-based.

The next data set has as its target T3, human GIPR (Homo sapiens, UniProt P48546).
T3 construct: expressed in transfected cells; host or cells: CHO-K1 (CRE-LUC/CHO-K1), plasmid hGIPR/pMSRα-neo
T3 sequence (P48546 22-466): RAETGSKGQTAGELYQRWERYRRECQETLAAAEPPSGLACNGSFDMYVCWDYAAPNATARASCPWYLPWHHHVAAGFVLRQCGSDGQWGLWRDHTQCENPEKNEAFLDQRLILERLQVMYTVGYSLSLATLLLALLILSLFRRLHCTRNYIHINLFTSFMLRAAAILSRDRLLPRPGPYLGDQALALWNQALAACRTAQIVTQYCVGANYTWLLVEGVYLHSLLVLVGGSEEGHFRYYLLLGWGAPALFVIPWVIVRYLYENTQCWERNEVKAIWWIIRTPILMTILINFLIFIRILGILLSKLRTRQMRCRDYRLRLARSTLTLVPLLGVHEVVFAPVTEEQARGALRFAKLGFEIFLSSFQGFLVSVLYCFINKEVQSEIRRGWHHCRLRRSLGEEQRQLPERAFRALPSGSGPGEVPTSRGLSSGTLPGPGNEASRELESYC
Kind of data set: Agonist activity against human GIPR, CRE-luciferase reporter assay (rise in intracellular cAMP) in hGIPR/CRE-LUC/CHO-K1 cells. Type of data set: cell-based.

Setting [2] is: hGLP-1R/CRE-luc/CHO-K1 cells, 4 hours incubation, 10 nM GLP-1 = 100%, read-out: Agonist activity (EC50) hGLP-1R.
The mark [3] stands for this setting: hGlucagonR/CRE-LUC/CHO-K1 cells, 4 hours incubation, 10 nM glucagon = 100%, read-out: Agonist activity (EC50) hGCGR.
[4] abbreviates: hGIPR/CRE-LUC/CHO-K1 cells, 4 hours incubation, 10 nM GIP = 100%, read-out: Agonist activity (EC50) hGIPR.

T1 sequence (P43220 24-463): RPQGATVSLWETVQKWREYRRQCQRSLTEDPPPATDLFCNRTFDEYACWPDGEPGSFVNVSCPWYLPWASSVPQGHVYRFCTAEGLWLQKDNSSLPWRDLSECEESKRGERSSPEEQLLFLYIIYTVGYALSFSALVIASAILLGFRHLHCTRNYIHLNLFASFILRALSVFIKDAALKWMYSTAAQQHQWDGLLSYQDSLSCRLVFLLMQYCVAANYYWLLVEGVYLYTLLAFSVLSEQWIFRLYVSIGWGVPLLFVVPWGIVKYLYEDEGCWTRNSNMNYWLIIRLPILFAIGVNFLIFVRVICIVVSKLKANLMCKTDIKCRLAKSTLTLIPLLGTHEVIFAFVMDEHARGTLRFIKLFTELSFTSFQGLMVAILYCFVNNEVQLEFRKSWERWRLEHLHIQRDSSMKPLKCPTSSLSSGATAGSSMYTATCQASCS
T2 sequence (P47871 26-477): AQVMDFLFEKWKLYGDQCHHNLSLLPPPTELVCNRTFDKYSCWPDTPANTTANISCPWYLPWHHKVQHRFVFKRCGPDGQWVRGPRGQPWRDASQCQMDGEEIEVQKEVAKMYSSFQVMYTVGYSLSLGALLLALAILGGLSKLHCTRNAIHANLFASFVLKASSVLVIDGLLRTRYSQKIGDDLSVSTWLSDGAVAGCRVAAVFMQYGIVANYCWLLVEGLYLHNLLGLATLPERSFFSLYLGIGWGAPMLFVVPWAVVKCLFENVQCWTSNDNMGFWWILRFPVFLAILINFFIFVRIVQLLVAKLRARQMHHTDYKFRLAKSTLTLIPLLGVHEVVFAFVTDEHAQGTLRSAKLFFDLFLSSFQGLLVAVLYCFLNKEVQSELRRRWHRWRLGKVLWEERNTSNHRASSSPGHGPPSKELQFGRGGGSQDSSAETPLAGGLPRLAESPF

What is called solubility is the concentration that dissolves in the medium under given conditions. As a reminder, the EC50 is the concentration needed to bring the measured effect to its halfway point. Turning to `CC(C)C[C@H](NC(=O)[C@H](CC(C)C)NC(=O)[C@H](Cc1c[nH]c2ccccc12)NC(=O)[C@H](CCCCN)NC(=O)[C@@H](NC(=O)[C@H](Cc1ccccc1)NC(=O)[C@H](CCC(=O)O)NC(=O)[C@H](CCC(N)=O)NC(=O)[C@H](CCC(N)=O)NC(=O)[C@H](C)NC(=O)[C@H](CCC(N)=O)NC(=O)[C@H](CCCCN)NC(=O)[C@H](CC(=O)O)NC(=O)[C@H](CC(C)C)NC(=O)[C@H](Cc1ccc(O)cc1)NC(=O)[C@H](CCCCN)NC(=O)C(C)(C)NC(=O)[C@H](Cc1ccc(O)cc1)NC(=O)[C@H](CC(=O)O)NC(=O)[C@H](CO)NC(=O)[C@@H](NC(=O)[C@](C)(Cc1ccccc1)NC(=O)[C@@H](NC(=O)CNC(=O)[C@H](CCC(=O)O)NC(=O)C(C)(C)NC(=O)[C@@H](N)Cc1ccc(O)cc1)[C@@H](C)O)[C@@H](C)O)C(C)C)C(=O)N[C@@H](CCCCN)C(=O)NCC(=O)NCC(=O)N1CCC[C@H]1C(=O)N[C@@H](CO)C(=O)N[C@@H](CO)C(=O)NCC(=O)N[C@@H](C)C(=O)N1CCC[C@H]1C(=O)N1CCC[C@H]1C(=O)N1CCC[C@H]1C(=O)N[C@@H](CO)C(=O)N[C@@H](CCCCN)C(N)=O` [Example 25] (H-Y[Aib]EGT[αMeF]TSDY[Aib]KYLDKQAQQEFVKWLLKGGPSSGAPPPSK-NH2), the solubility in data set [1] (pH 3), in data set [1] (pH 5), in data set [1] (pH 7) and in data set [1] (pH 9) was above 200 mg/mL throughout. Also, the EC50 is 0.014 nM at human GLP-1R (setting [2]), above 1000 nM on human glucagon R (setting [3]) and 0.013 nM at human GIPR (setting [4]).
In the case of `CC[C@H](C)[C@H](NC(=O)[C@H](C)NC(=O)[C@H](Cc1ccc(O)cc1)NC(=O)[C@H](CC(=O)O)NC(=O)[C@H](CO)NC(=O)[C@@H](NC(=O)[C@](C)(Cc1ccccc1)NC(=O)[C@@H](NC(=O)CNC(=O)[C@H](CCC(=O)O)NC(=O)C(C)(C)NC(=O)[C@@H](N)Cc1ccc(O)cc1)[C@@H](C)O)[C@@H](C)O)C(=O)NC(C)(C)C(=O)N[C@@H](CC(C)C)C(=O)N[C@@H](CC(=O)O)C(=O)N[C@@H](CCCCN)C(=O)N[C@@H](CCC(N)=O)C(=O)N[C@@H](C)C(=O)N[C@@H](CCC(N)=O)C(=O)N[C@@H](C)C(=O)N[C@@H](CCC(=O)O)C(=O)N[C@@H](Cc1ccccc1)C(=O)N[C@H](C(=O)N[C@@H](CCCCN)C(=O)N[C@@H](Cc1c[nH]c2ccccc12)C(=O)N[C@@H](CC(C)C)C(=O)N[C@@H](CC(C)C)C(=O)N[C@@H](CCCCN)C(=O)NCC(=O)NCC(=O)N1CCC[C@H]1C(=O)N[C@@H](CO)C(=O)N[C@@H](CO)C(=O)NCC(=O)N[C@@H](C)C(=O)N1CCC[C@H]1C(=O)N1CCC[C@H]1C(=O)N1CCC[C@H]1C(=O)N[C@@H](CO)C(=O)N[C@@H](CCCCN)C(N)=O)C(C)C` [Example 1] (H-Y[Aib]EGT[αMeF]TSDYAI[Aib]LDKQAQAEFVKWLLKGGPSSGAPPPSK-NH2), the EC50 on human GLP-1R is 0.012 nM; on human glucagon R, above 1000 nM; at human GIPR, 0.0081 nM.
Taken in the same sequence, the figures for `CC[C@H](C)[C@H](NC(=O)C(C)(C)NC(=O)[C@H](Cc1ccc(O)cc1)NC(=O)[C@H](CC(=O)O)NC(=O)[C@H](CO)NC(=O)[C@@H](NC(=O)[C@](C)(Cc1ccccc1)NC(=O)[C@@H](NC(=O)CNC(=O)[C@H](CCC(=O)O)NC(=O)C(C)(C)NC(=O)[C@@H](N)Cc1ccc(O)cc1)[C@@H](C)O)[C@@H](C)O)C(=O)N[C@@H](CC1CCCCC1)C(=O)N[C@@H](CC(C)C)C(=O)N[C@@H](CC(=O)O)C(=O)N[C@@H](CCCCN)C(=O)N[C@@H](CCC(N)=O)C(=O)N[C@@H](C)C(=O)N[C@@H](CCC(N)=O)C(=O)N[C@@H](C)C(=O)N[C@@H](CCC(=O)O)C(=O)N[C@@H](Cc1ccccc1)C(=O)N[C@H](C(=O)N[C@@H](CCCCN)C(=O)N[C@@H](Cc1c[nH]c2ccccc12)C(=O)N[C@@H](CC(C)C)C(=O)N[C@@H](CC(C)C)C(=O)N[C@@H](CCCCN)C(=O)NCC(=O)NCC(=O)N1CCC[C@H]1C(=O)N[C@@H](CO)C(=O)N[C@@H](CO)C(=O)NCC(=O)N[C@@H](C)C(=O)N1CCC[C@H]1C(=O)N1CCC[C@H]1C(=O)N1CCC[C@H]1C(=O)N[C@@H](CO)C(=O)N[C@@H](CCCCN)C(N)=O)C(C)C` [Example 14] (H-Y[Aib]EGT[αMeF]TSDY[Aib]I[Cha]LDKQAQAEFVKWLLKGGPSSGAPPPSK-NH2) were 0.021 nM, above 1000 nM and 0.013 nM.
For `CC(C)C[C@H](NC(=O)[C@H](CC(C)C)NC(=O)[C@H](Cc1c[nH]c2ccccc12)NC(=O)[C@H](CCCCN)NC(=O)[C@@H](NC(=O)[C@H](Cc1ccccc1)NC(=O)[C@H](CCC(=O)O)NC(=O)[C@H](C)NC(=O)[C@H](CCC(N)=O)NC(=O)[C@H](C)NC(=O)[C@H](CCC(N)=O)NC(=O)[C@H](CCCCN)NC(=O)[C@H](CC(=O)O)NC(=O)[C@H](CC(C)C)NC(=O)C(C)(C)NC(=O)[C@H](CCCCN)NC(=O)C(C)(C)NC(=O)[C@H](Cc1ccc(O)cc1)NC(=O)[C@H](CC(=O)O)NC(=O)[C@H](CO)NC(=O)[C@@H](NC(=O)[C@](C)(Cc1ccccc1)NC(=O)[C@@H](NC(=O)CNC(=O)[C@H](CCC(=O)O)NC(=O)C(C)(C)NC(=O)[C@@H](N)Cc1ccc(O)cc1)[C@@H](C)O)[C@@H](C)O)C(C)C)C(=O)N[C@@H](CCCCN)C(=O)NCC(=O)NCC(=O)N1CCC[C@H]1C(=O)N[C@@H](CO)C(=O)N[C@@H](CO)C(=O)NCC(=O)N[C@@H](C)C(=O)N1CCC[C@H]1C(=O)N1CCC[C@H]1C(=O)N1CCC[C@H]1C(=O)N[C@@H](CO)C(=O)N[C@@H](CCCCN)C(N)=O` [Example 9] (H-Y[Aib]EGT[αMeF]TSDY[Aib]K[Aib]LDKQAQAEFVKWLLKGGPSSGAPPPSK-NH2), in that order: 0.015 nM, above 1000 nM and 0.008 nM.
On to `CC[C@H](C)[C@H](NC(=O)C(C)(C)NC(=O)[C@H](Cc1ccc(O)cc1)NC(=O)[C@H](CC(=O)O)NC(=O)[C@H](CO)NC(=O)[C@@H](NC(=O)[C@](C)(Cc1ccccc1)NC(=O)[C@@H](NC(=O)CNC(=O)[C@H](CCC(=O)O)NC(=O)C(C)(C)NC(=O)[C@H](Cc1ccc(O)cc1)NC(C)=O)[C@@H](C)O)[C@@H](C)O)C(=O)NC(C)(C)C(=O)N[C@@H](CC(C)C)C(=O)N[C@@H](CC(=O)O)C(=O)N[C@@H](CCCCN)C(=O)N[C@@H](CCC(N)=O)C(=O)N[C@@H](C)C(=O)N[C@@H](CCC(N)=O)C(=O)N[C@@H](C)C(=O)N[C@@H](CCC(=O)O)C(=O)N[C@@H](Cc1ccccc1)C(=O)N[C@H](C(=O)N[C@@H](CCCCN)C(=O)N[C@@H](Cc1c[nH]c2ccccc12)C(=O)N[C@@H](CC(C)C)C(=O)N[C@@H](CC(C)C)C(=O)N[C@@H](CCCCN)C(=O)NCC(=O)NCC(=O)N1CCC[C@H]1C(=O)N[C@@H](CO)C(=O)N[C@@H](CO)C(=O)NCC(=O)N[C@@H](C)C(=O)N1CCC[C@H]1C(=O)N1CCC[C@H]1C(=O)N1CCC[C@H]1C(=O)N[C@@H](CO)C(=O)N[C@@H](CCCCN)C(N)=O)C(C)C` [Example 18] (Ac-Y[Aib]EGT[αMeF]TSDY[Aib]I[Aib]LDKQAQAEFVKWLLKGGPSSGAPPPSK-NH2), for which the results for the EC50 on human GLP-1R (setting [2]), at human glucagon R (setting [3]) and at human GIPR (setting [4]) were 0.13 nM, above 1000 nM and 0.027 nM, respectively.
`CC(C)C[C@H](NC(=O)[C@H](CC(C)C)NC(=O)[C@H](Cc1c[nH]c2ccccc12)NC(=O)[C@H](CCCCN)NC(=O)[C@@H](NC(=O)[C@H](Cc1ccccc1)NC(=O)[C@H](CCC(=O)O)NC(=O)[C@H](C)NC(=O)[C@H](CCC(N)=O)NC(=O)[C@H](C)NC(=O)[C@H](CCC(N)=O)NC(=O)[C@H](CCCCN)NC(=O)[C@H](CC(=O)O)NC(=O)[C@H](CC(C)C)NC(=O)C(C)(C)NC(=O)[C@H](Cc1ccccc1)NC(=O)C(C)(C)NC(=O)[C@H](Cc1ccc(O)cc1)NC(=O)[C@H](CC(=O)O)NC(=O)[C@H](CO)NC(=O)[C@@H](NC(=O)[C@](C)(Cc1ccccc1)NC(=O)[C@@H](NC(=O)CNC(=O)[C@H](CCC(=O)O)NC(=O)C(C)(C)NC(=O)[C@@H](N)Cc1ccc(O)cc1)[C@@H](C)O)[C@@H](C)O)C(C)C)C(=O)N[C@@H](CCCCN)C(=O)NCC(=O)NCC(=O)N1CCC[C@H]1C(=O)N[C@@H](CO)C(=O)N[C@@H](CO)C(=O)NCC(=O)N[C@@H](C)C(=O)N1CCC[C@H]1C(=O)N1CCC[C@H]1C(=O)N1CCC[C@H]1C(=O)N[C@@H](CO)C(=O)N[C@@H](CCCCN)C(N)=O` [Example 11] (H-Y[Aib]EGT[αMeF]TSDY[Aib]F[Aib]LDKQAQAEFVKWLLKGGPSSGAPPPSK-NH2): the figures for the EC50 on human GLP-1R, at human glucagon R and on human GIPR were 0.022 nM, above 1000 nM and 0.015 nM, respectively.
